These results are taken from patent publication US4980343A, “Aminooxodihydroisoindoloquinazoline carcinostatic agents” (Bayer Aktiengesellschaft, priority 1989, dated 1990).

Series [1] deals with E. coli Neumann. As to the kind of experiment: minimal inhibitory concentrations (MICs) by agar dilution method. The format is cell-based. On the procedure:
The minimal inhibitory concentrations (MICs) were determined by agar dilution method. Series of agar plates with Iso-Sensitest agar (Oxoid) were prepared which contained the test substances at twofold increasing concentrations. The agar plates were inoculated by using a multipoint inoculator (Denley). For this purpose, overnight cultures of the bacterial test strains were diluted appropriately so that each inoculation point contained approx. 10^4 cells. The inoculated agar plates were incubated at 37° C. and bacterial growth was read after 20 hours.

The test system of series [2] is E. coli Neumann. As to the kind of experiment: therapeutic efficacy: survival of female CF1 mice infected intraperitoneally with E. coli Neumann. Type of series: in vivo. To be noted: for survival of the animals (number of 10 mice): single dose 30 min. after infection, until sixth day. How it is done: To measure the therapeutic efficacy, 10 female CF1 mice each group were infected by intraperitoneal injection of 3×10^7 cells of E. coli Neumann. For treatment, one single dose of drug was given intravenously 30 min. after the infection. The survival of the animals was recorded daily until the sixth day after infection: […]

The nature of series [3]: stability of B in the presence of peptidases or human plasma. Type of series: in vitro ADME. To be noted: not cleaved back to A.
Series [4] in a line: solubility in water and water containing solvents. To be noted: for solubility: water.
Series [5] can be described thus: stability of 4, 6 or 12 in aqueous buffered solutions (μ = 0.15). Type of series: physicochemical. How it is done: The hydrolysis of 4, 6 or 12 in aqueous buffered solutions at various pH and at an ionic strength of 0.15 (NaCl) were measured by analyzing aliquots at appropriate intervals using HPLC. In the HPLC analysis both the disappearance of 4, 6 or 12 and the appearance of 1 were monitored. Rate constants were calculated from the first-order plots of the disappearance of 4, 6 or 12 versus time.

The nature of series [6]: stability of 4, 6 and 12 in human plasma at 37° C. Type of series: in vitro ADME. The settings on record: for hydrolysis to 1: human plasma; for half-life: plasma. On the procedure: (§1) A solution of approximately 2.0 mg of 4, 6 or 12 in 100 μl of water was added to 2 ml of either human or mice plasma. The resulting solution was placed in water bath at 37° C. Samples were withdrawn at appropriate time intervals and proteins were precipitated with 250 μl of acetonitrile, vortexed for 30 sec., then centrifuged for 10 min at 2200 rpm. […] Apparent first-order rate constants were obtained by plotting the disappearance the derivatives 4, 6 or 12 versus time on semilogarithmic plot and the results are shown in table 12.

The nature of series [7]: stability of 4, 6 and 12 in mice plasma at 37° C. The format is in vitro ADME. To be noted: for hydrolysis to 1: mice plasma; for kobs / half-life: mice, heparin; for half-life: mouse, plasma. On the procedure:
as §1

Series [8] in a line: hydrolysis of 14 and 4a in human plasma at 37.0° C. Type of series: in vitro ADME. On the procedure:
(§2) The hydrolysis of 14 in human plasma was studied. A solution containing 2.0 mg of 14 in 200 μl of water was mixed with 2 ml of human plasma (sodium citrate was used as anticoagulant). The resulting mixture was placed in water bath at 37.0° C. Samples were withdrawn at appropriate time intervals and proteins were precipitated with 250 μl of acetonitrile, vortexed for 30 sec, the centrifuged for 15 min at 2200 rpm. A 100 μl sample of the supernatent was mixed with 250 μl of H2 O and the resulting solution was analyzed by HPLC. […] The chemical hydrolysis of 14 (5.5×10^-5 M) in 0.05M phosphate buffer pH 7.4 and ionic strength of 0.15M (NaCl) at 37.0° C. was studied. Samples were withdrawn and analyzed at appropriate time intervals.

The nature of series [9]: chemical hydrolysis of 14 in 0.05M phosphate buffer pH 7.4 at 37.0° C. The format is physicochemical. The settings on record: 5.5×10^-5 M, 0.05M phosphate pH 7.4, ionic strength 0.15M (NaCl). How it is done: as §2
Where [10] appears, read: Acetate (0.05M), 25° C., pH 5.0, initial conc. 0.024 (4, 12), 0.018 (6) mg/ml.
[11] abbreviates: Phosphate (0.05M), 37° C., pH 7.4, initial conc. 0.02 mg/ml.
[12] abbreviates: acetate buffer (0.05m), pH 5, Acetate (0.05M), 25° C., pH 5.0, initial conc. 0.024 (4, 12), 0.018 (6) mg/ml, 6 and 12 estimated values (*).
The mark [13] stands for this setting: phosphate buffer (0.05m), pH 7.4, Phosphate (0.05M), 25° C., pH 7.4, initial conc. 0.02 mg/ml, 4 estimated value (*).
[14] abbreviates: phosphate buffer (0.05m), pH 7.4, Phosphate (0.05M), 37° C., pH 7.4, initial conc. 0.02 mg/ml.
[15] abbreviates: water, pH 4.5, Water, 25° C., initial conc. 10.0 mg/ml, pH 4.5 (4), 4.31 (6), 4.54 (12), estimated values (*).
Where [16] appears, read: water, pH 5.9, Water, 25° C., initial conc. 0.1 mg/ml, pH 5.9 (4), 5.46 (6), 6.1 (12), estimated values (*).
[17] abbreviates: Phosphate (0.05M), 25° C., pH 7.4, initial conc. 0.02 mg/ml.
[18] abbreviates: Water, 25° C., initial conc. 0.1 mg/ml, pH 5.46 (6), 6.1 (12).
The mark [19] stands for this setting: Water, 25° C., initial conc. 10.0 mg/ml, pH 4.31 (6), 4.54 (12).
The mark [20] stands for this setting: concentration of obtainable aqueous solutions, hydrochloric acid salts (Example 5).

In brackets after ≈: the same amount, converted by molar mass. Entries after “also recorded” stand apart in the source; their conditions may differ. Where a name gives a salt, the structure may show the parent alone.

The MIC is the lowest concentration that inhibits growth of the organism. High values mean a need for much substance, low ones inhibition by little substance. Take `CC(N)C(=O)N1CCN(c2cc3c(cc2F)c(=O)c(C(=O)O)cn3C2CC2)CC1` (centres unmarked) [B]: in the series with E. coli Neumann [1] (Escherichia coli, E. coli Neumann, agar dilution, Iso-Sensitest agar, 37° C., 20 hours), the lowest concentration to inhibit growth (MIC) was 0.5 mg/L (≈ 1.24 µM). Moreover, the “effectiveness against E. coli Neumann in vitro” value with E. coli Neumann [1] (in words) is “only poorly effective”. Further, the entries for the “survival of the animals (number of 10 mice)” value with E. coli Neumann [2] (0.06 mg/kg i.v.), in the series with E. coli Neumann [2] (0.25 mg/kg i.v.) and in the series on E. coli Neumann [2] (0.5 mg/kg i.v.) were 0, 1 and 1, respectively. Moreover, in the series on E. coli Neumann [2] (in words), the “effectiveness against E. coli Neumann in vivo” value is given as “only poorly effective”. The “stability in the presence of peptidases or human plasma” value in series [3] was “stable”.

In the case of `Nc1ccc2c(c1)CN1C(=O)c3ccccc3C1=N2` [Compound 1, aminooxodihydroisoindoloquinazoline], the “solubility in water (in words)” value in [4] (water containing solvents) is listed as “only poorly soluble; also recorded: nearly insoluble”.

The term half-life denotes the time needed for the level to fall by half in the phase considered. The solubility is the concentration that dissolves in the medium under given conditions. Regarding `C[C@H](N)C(=O)Nc1ccc2c(c1)CN1C(=O)c3ccccc3C1=N2` [Compound 4, N-l-alanyl-AQ-monohydrochloride], the kobs in [5] (setting [10]) was 0.0016 h⁻¹; in series [5] (setting [11]), 0.0044 h⁻¹; in [6] (human 1, citrate) it was 0.025 min⁻¹; in series [6] (human 2, citrate), 0.022 min⁻¹; in [7], 0.033 min⁻¹. Moreover, the half-life in series [5] (setting [12]) is 17.8 days; in series [5] (setting [13]) it was over 8.33 days; in series [5] (setting [14]), 6.58 days; in series [5] (setting [15]), over 20 days; in series [5] (setting [16]), over 20 days; in [6] (human, human 1, citrate) it was 0.46 h. Also, the half-life in [6] (human, human 2, citrate) worked out at 0.512 h; in [7], 0.355 h. The “hydrolysis to 1” value in [6] and in series [7] was “quantitative hydrolysis” throughout. Further, the solubility in series [4] (solubility in water, hydrochloric acid salt, water (Example 5)) is over 25 mg/mL.

`C[C@H](N)C(=O)Nc1ccc2c(c1)CN1C(=O)c3ccccc3C1=N2` [Compound 4a, N-l-alanyl-AQ] came in with a half-life in series [8] (human plasma, FIG. 1, 4a formed from 14) of about 0.333 h.

`CC(C)C[C@H](N)C(=O)Nc1ccc2c(c1)CN1C(=O)c3ccccc3C1=N2` [Compound 6, N-l-leucine derivative of AQ]: the kobs in series [5] (setting [10]) turned out to be 0.0011 h⁻¹; in [5] (setting [17]) it was 0.00411 h⁻¹; in series [5] (setting [11]), 0.0086 h⁻¹; in series [5] (setting [18]), 0.00061 h⁻¹; in [5] (setting [19]), 0.000146 h⁻¹; in [6] (human, citrate) it was 0.0057 min⁻¹. In series [7], the kobs came to 0.0185 min⁻¹. In addition, the half-life in [5] (setting [12]) was 26 days; in series [5] (setting [13]), 7.03 days; in series [5] (setting [14]), 3.36 days; in series [5] (setting [15]) it was 198 days; in [5] (setting [16]) it was 47 days; in [6] (human, citrate), 2.02 h. Further, the half-life in series [7] amounted to 0.623 h. Further, the “hydrolysis to 1” value in [6] and in [7] was “quantitative hydrolysis” in each case. In addition, in series [4] (setting [20]), the solubility is over 25 mg/mL.

Regarding `NCCCC[C@H](N)C(=O)Nc1ccc2c(c1)CN1C(=O)c3ccccc3C1=N2` [Compound 12, N-l-lysine dihydrochloride derivative of AQ], the kobs in [5] (setting [10]) amounted to 0.00115 h⁻¹; in [5] (setting [17]), 0.00258 h⁻¹; in [5] (setting [11]) it was 0.0103 h⁻¹; in [5] (setting [18]), 0.00078 h⁻¹; in series [5] (setting [19]) it was 0.000267 h⁻¹; in series [6] (human, citrate), 0.005 min⁻¹. This compound also came in with a kobs in series [7] of 0.0048 min⁻¹. The half-life was 25 days in series [5] (setting [12]); 11.2 days in series [5] (setting [13]); 2.8 days in series [5] (setting [14]); 108 days in [5] (setting [15]); 37 days in [5] (setting [16]); 2.31 h in series [6] (human, citrate). For the same compound, the half-life in series [7] came to 2.43 h. For the same compound, the “hydrolysis to 1” value in [6] and in [7] was “quantitative hydrolysis” each time. Further, the solubility was over 25 mg/mL in [4] (setting [20]) and over 20 mg/mL in [4] (water solubility, dihydrochloride, freeze dried (Example 3)).

With `C[C@H](NC(=O)CN)C(=O)Nc1ccc2c(c1)CN1C(=O)c3ccccc3C1=N2` [Compound 14, L-Gly-Ala-derivative of AQ], the half-life in series [8] (human plasma (citrate), 2.0 mg of 14 in 200 μl water + 2 ml plasma, read-out: half life of hydrolysis of 14 to 4a) came to 0.233 ± 0.0167 h. Also, the half-life at 55 µM in [9] is 60 h.
